# Measurements taken from patent US20110263552A1, “MODULATION OF SIDE EFFECT PROFILE OF 5-ALPHA REDUCTASE INHIBITOR THERAPY” (SOV Therapeutics, priority 2009, published 2011).
# Marks after values point to notes of the source that are not given here.
# Experiments:
# Male Sprague-Dawley rats = assay: Organ weights in rats after 14 days of dosing (Example 9); format: in vivo
# Excerpt: The organ weights obtained from Bramson et al. are given in the right-hand column of the table for reference (Bramson, H. N., Journal of Pharmacology and Experimental Therapeutics, 1496-1502, (1997).)
# [1] = Testosterone undecanoate (TU) solubility in various solubilizers
# [2] = tested on: absorption of cholesterol; details: ingestion of 1 g; meal containing 500 mg of cholesterol; cited from earlier work
# [3] = oral 200 mg twice daily, cited from earlier work
# [4] = male Sprague-Dawley rats, 80 mg/kg/day TU, without or with 1 mg/kg/day D
smiles,measurement,setting,value
"CCCCCCCCCCC(=O)O[C@H]1CC[C@H]2[C@@H]3CCC4=CC(=O)CC[C@]4(C)[C@H]3CC[C@]12C [TU, testosterone undecanoate]","Body weight, Mean",Male Sprague-Dawley rats; [4],284 g
same,"Seminal vesicles weight, Mean",Male Sprague-Dawley rats; [4],0.902 grams
same,"Testicles weight, Mean",Male Sprague-Dawley rats; [4],3.374 grams
same,"Ventral prostate weight, Mean",Male Sprague-Dawley rats; [4],0.22 grams
same,Difference in organ weight versus vehicle-only,"Male Sprague-Dawley rats; rats, any organ measured",No significant differences in weight
same,TU Solubility,"[1]; vehicle Acconon CO-7, at 37 C.",59 mg/g
same,TU Solubility,"[1]; vehicle Canola oil, at 37 C.",167 mg/g
same,TU Solubility,"[1]; vehicle Capmul MCM, determined at 25° C.",>100* mg/g
same,TU Solubility,"[1]; vehicle Capmul PG-8, determined at 25° C.",>100* mg/g
same,TU Solubility,"[1]; vehicle Caprylic acid, at 37 C.",595 mg/g
same,TU Solubility,"[1]; vehicle Castor oil, at 37 C.",218 mg/g
same,TU Solubility,"[1]; vehicle Corn oil, at 37 C.",243 mg/g
same,TU Solubility,"[1]; vehicle Cremophor RH40, determined at 25° C.",88* mg/g
same,TU Solubility,"[1]; vehicle Crodamol EO (ethyl oleate), at 37 C.",221 mg/g
same,TU Solubility,"[1]; vehicle Crodamol IPM (isopropyl myristate), at 37 C.",295 mg/g
same,TU Solubility,"[1]; vehicle Crodamol IPP (isopropyl palmitate), at 37 C.",215 mg/g
same,TU Solubility,"[1]; vehicle Ethyl linoleate, at 37 C.",230 mg/g
same,TU Solubility,"[1]; vehicle Glyceryl monooleate or GMO (Peceol (Gattefosse)), at 37 C.",323 mg/g
same,TU Solubility,"[1]; vehicle Glyceryl ricinoleate (Softigen 701), at 37 C.",261 mg/g
same,TU Solubility,"[1]; vehicle Glyceryl trioleate (Capmul GTO), at 37 C.",154 mg/g
same,TU Solubility,"[1]; vehicle Incromega E7010 (omega-3), at 37 C.",247 mg/g
same,TU Solubility,"[1]; vehicle Incromega TG7010 SR (omega-3 high purity), at 37 C.",225 mg/g
same,TU Solubility,"[1]; vehicle Labrafil M 2125 CS, at 37 C.",257 mg/g
same,TU Solubility,"[1]; vehicle Labrasol, determined at 25° C.",43* mg/g
same,TU Solubility,"[1]; vehicle Linoleic acid, at 37 C.",391 mg/g
same,TU Solubility,"[1]; vehicle Linolenic acid, at 37 C.",162 mg/g
same,TU Solubility,"[1]; vehicle Maisine 35-1, at 37 C.",93 mg/g
same,TU Solubility,"[1]; vehicle Miglyol 812, determined at 25° C.",>100* mg/g
same,TU Solubility,"[1]; vehicle N-methyl pyrolidone, at 37 C.",>500 mg/g
same,TU Solubility,"[1]; vehicle Oleic acid, at 37 C.",405 mg/g
same,TU Solubility,"[1]; vehicle Omega-3 ethyl esters w/antioxidant (AMRI), at 37 C.",261 mg/g
same,TU Solubility,"[1]; vehicle Omega-3 ethyl esters w/o antioxidant (AMRI), at 37 C.",360 mg/g
same,TU Solubility,"[1]; vehicle Polyglyceryl-3-diisostearate (Plurol diisosterique), at 37 C.",173 mg/g
same,TU Solubility,"[1]; vehicle Polyglyceryl-3-dioleate (Plurol oleique CC497), at 37 C.",193 mg/g
same,TU Solubility,"[1]; vehicle Polyglyceryl-6-dioleate (Caprol MPGO, Abitec), at 37 C.",184 mg/g
same,TU Solubility,"[1]; vehicle Polysorbate 80 (Tween 80), determined at 25° C.",39* mg/g
same,TU Solubility,"[1]; vehicle Polysorbate 85, at 37 C.",125 mg/g
same,TU Solubility,"[1]; vehicle Propylene glycol monocaprylate (Capryol 90, Gattefosse), at 37 C.",486 mg/g
same,TU Solubility,"[1]; vehicle Propylene glycol monolaurate, determined at 25° C.",>200* mg/g
same,TU Solubility,"[1]; vehicle Rapeseed oil, at 37 C.",123 mg/g
same,TU Solubility,"[1]; vehicle Ricinoleic acid, at 37 C.",244 mg/g
same,TU Solubility,"[1]; vehicle Safflower oil, at 37 C.",124 mg/g
same,TU Solubility,"[1]; vehicle Span 80, at 37 C.",289 mg/g
same,TU Solubility,"[1]; vehicle Sunflower oil, at 37 C.",105 mg/g
same,TU Solubility,"[1]; vehicle Transcutol HP, at 37 C.",180 mg/g
same,TU Solubility,"[1]; vehicle dl-alpha-tocopherol, at 37 C.",527 mg/g
CC[C@H](CC[C@@H](C)[C@H]1CC[C@H]2[C@@H]3CC=C4C[C@@H](O)CC[C@]4(C)[C@H]3CC[C@]12C)C(C)C [β-sitosterol],reduction of absorption of cholesterol,[2],42%
"C[C@]12CC[C@H]3[C@@H](CCC4=CC(=O)CC[C@@]43C)[C@@H]1CC[C@@H]2O [micronized testosterone, testosterone]",time at desired level of serum testosterone for each peak,[3]; Daggett et al.,about 4 hours
same,time of total serum testosterone within the normal range,[3]; Føgh et al.,greater than 12 hours
